Measurements from patent US5491155A, “Substituted thiadiazoles, compositions containing them and their use as antimicrobial and marine antifouling agents” (The Dow Chemical Company, priority 1994, dated 1996).
≈ marks a conversion by molar mass, not a printed value. Like-named read-outs stand apart in the source and are kept apart here.

Columns and labels:
Bacillus subtilis = assay: MIC in nutrient agar, Bacillus subtilis; type: cell-based, Bacillus subtilis (ATCC 8473)
Method: (§1) The minimum inhibitory concentration (MIC) for the compounds listed in Table I is determined for bacteria, using nutrient agar, and 7 yeast and fungi, using malt yeast agar. A one percent solution of the test compound is prepared in a mixture of acetone and water.
(§2) Nutrient agar is prepared at pH 6.8, representing a neutral medium, and at pH 8.2, representing an alkaline medium. The nutrient agars are prepared by adding 23 g of nutrient agar to one-liter of deionized water. In addition, the alkaline medium is prepared by adjusting a 0.04M solution of N-(tris-(hydroxymethyl)methyl)glycine buffered deionized water with concentrated sodium hydroxide to a pH of 8.5.
(§3) The test tubes containing the agar are cooled in a water bath until the temperature of the agar is 48° C. Then, an appropriate amount of the one percent solution of the test compound is added (except in the controls where no compound is added) to the respective test tubes so that the final concentrations are 500, 250, 100, 50, 25, 10, 2.5, 1.0 and zero parts per million of the test compound in the agar, thus having a known concentration of test compound dispersed therein. The contents of the test tubes are then transferred to respective petri plates. After drying for 24 hours, the petri plates containing nutrient agar are inoculated with bacteria and those containing malt yeast agar are inoculated with yeast and fungi.
(§4) The inoculation with bacteria is accomplished by using the following procedure. Twenty-four hour-cultures of each of the bacteria are prepared by incubating the respective bacteria in tubes containing nutrient broth for 24 hours at 30° C. in a shaker. Dilutions of each of the 24 hour-cultures are made so that nine separate suspensions (one for each of the nine test bacteria) are made, each containing 10^8 colony forming units (CFU) per mL of suspension of a particular bacteria. Aliquots of 0.3 mL of each of the bacterial suspensions are used to fill the individual wells of Steer's Replicator. For each microbial suspension, 0.3 mL was used to fill three wells (i.e., three wells of 0.3 mL each) so that for the nine different bacteria, 27 wells are filled. The Steer's Replicator is then used to inoculate both the neutral and alkaline pH nutrient agar petri plates.
(§5) The inoculated petri plates are incubated at 30° C. for 48 hours and then read to determine if the test compound which is incorporated into the agar prevented growth of the respective bacteria.
(§6) Table II lists the bacteria, yeast and fungi used in the MIC test described above along with their respective American Type Culture Collection (ATCC) identification numbers.
(§7) In Tables III and IV, the MIC values of the compounds described in Table I as compared to the MIC of a standard commercial preservative (with 1-(3-chloroalkyl)-3,5,7-triaza-1-azoniaadamantane chloride as the active agent and referred to in Tables III and IV as "STANDARD I") are set forth for the bacteria organisms and yeast/fungi organisms which are listed in Table II.

Enterobacter aerogenes = assay: MIC in nutrient agar, Enterobacter aerogenes; type: cell-based, Enterobacter aerogenes (ATCC 13048); settings: Klebsiella aerogenes
Method: as §1, §2, §3, §4, §5, §6, §7

Escherichia coli = assay: MIC in nutrient agar, Escherichia coli; type: cell-based, Escherichia coli (ATCC 11229)
Method: as §1, §2, §3, §4, §5, §6, §7

Klebsiella pneumonias = assay: MIC in nutrient agar, Klebsiella pneumonias; type: cell-based, Klebsiella pneumonias (ATCC 8308)
Method: as §1, §2, §3, §4, §5, §6, §7

Proteus vulgaris = assay: MIC in nutrient agar, Proteus vulgaris; type: cell-based, Proteus vulgaris (ATCC 881)
Method: as §1, §2, §3, §4, §5, §6, §7

[1] = test system: Pseudomonas aeruginosa (PRD-10); assay: MIC in nutrient agar, Pseudomonas aeruginosa (PRD-10); type: cell-based, Pseudomonas aeruginosa (ATCC 15442)
Method: as §1, §2, §3, §4, §5, §6, §7

Pseudomonas aeruginosa = assay: MIC in nutrient agar, Pseudomonas aeruginosa (Pa); type: cell-based, Pseudomonas aeruginosa (ATCC 10145)
Method: as §1, §2, §3, §4, §5, §6, §7

Salmonella choleraesuis = assay: MIC in nutrient agar, Salmonella choleraesuis; type: cell-based, Salmonella choleraesuis (ATCC 10708); settings: Salmonella enterica
Method: as §1, §2, §3, §4, §5, §6, §7

Staphylococcus aureus = assay: MIC in nutrient agar, Staphylococcus aureus; type: cell-based, Staphylococcus aureus (ATCC 6538)
Method: as §1, §2, §3, §4, §5, §6, §7

Aspergillus niger = assay: MIC in malt yeast agar, Aspergillus niger; type: cell-based, Aspergillus niger (ATCC 16404); settings: read-out: Minimum Inhibitory Concentration (MIC)
Method: as §1
(§8) Malt yeast agar is prepared by adding 3 g yeast extract and 45 g malt agar per liter of deionized water. The specific agar is dispensed in 30 mL aliquots into 25×200 mm test tubes, capped and autoclaved for 15 minutes at 115° C.
as §3
(§9) The inoculation with the yeast and fungi is accomplished as follows. Cultures of yeast and fungi are incubated for seven days on malt yeast agar at 30° C. These cultures are used to prepare suspensions by the following procedure. A suspension of each organism is prepared by adding 10 mL of sterile saline and 10 microliters of octylphenoxy polyethoxy ethanol to the agar slant of yeast or fungi. The sterile saline/octylphenoxy polyethoxy ethanol solution is then agitated with a sterile swab to suspend the microorganism grown on the slant. Each resulting suspension is diluted into sterile saline (1 part suspension: 9 parts sterile saline). Aliquots of these dilutions are placed in individual wells of Steer's Replicator and petri plates inoculated as previously described. The petri plates are incubated at 30° C. and read after 48 hours for yeast and 72 hours for fungi.
as §6, §7

Candida albicans = assay: MIC in malt yeast agar, Candida albicans; type: cell-based, Candida albicans (ATCC 10231); settings: read-out: Minimum Inhibitory Concentration (MIC)
Method: as §1, §8, §3, §9, §6, §7

Penicillium chrysogenum = assay: MIC in malt yeast agar, Penicillium chrysogenum; type: cell-based, Penicillium chrysogenum (ATCC 9480); settings: read-out: Minimum Inhibitory Concentration (MIC)
Method: as §1, §8, §3, §9, §6, §7

Saccharomyces cerevisiae = assay: MIC in malt yeast agar, Saccharomyces cerevisiae; type: cell-based, Saccharomyces cerevisiae (ATCC 4105); settings: read-out: Minimum Inhibitory Concentration (MIC)
Method: as §1, §8, §3, §9, §6, §7

Trichoderma viride = assay: MIC in malt yeast agar, Trichoderma viride; type: cell-based, Trichoderma viride (ATCC 8678); settings: read-out: Minimum Inhibitory Concentration (MIC)
Method: as §1, §8, §3, §9, §6, §7

Aureobasidium pullulan = assay: MIC in malt yeast agar, Aureobasidium pullulan; type: cell-based, Aureobasidium pullulan (ATCC 16622); settings: read-out: Minimum Inhibitory Concentration (MIC)
Method: as §1, §8, §3, §9, §6, §7

Fusarium oxysporum = assay: MIC in malt yeast agar, Fusarium oxysporum; type: cell-based, Fusarium oxysporum (ATCC 48112); settings: read-out: Minimum Inhibitory Concentration (MIC)
Method: as §1, §8, §3, §9, §6, §7

[2] = 48 h, pH 6.8, read-out: Minimum Inhibitory Concentration (MIC)
[3] = 48 h, pH 8.2, read-out: Minimum Inhibitory Concentration (MIC)

Compound: N#CSc1nsnc1Cl [Example 1, 4-Chloro-3-thiocyanato-1,2,5-thiadiazole]
- MIC (Bacillus subtilis; [2]): 25 µg/mL (≈ 141 µM)
- MIC (Bacillus subtilis; [3]): 500 µg/mL (≈ 2810 µM)
- MIC (Enterobacter aerogenes; [2]): 50 µg/mL (≈ 281 µM)
- MIC (Enterobacter aerogenes; [3]): > 500 µg/mL
- MIC (Escherichia coli; [2]): 25 µg/mL (≈ 141 µM)
- MIC (Escherichia coli; [3]): > 500 µg/mL
- MIC (Klebsiella pneumonias; [2]): 25 µg/mL (≈ 141 µM)
- MIC (Klebsiella pneumonias; [3]): > 500 µg/mL
- MIC (Proteus vulgaris; [2]): 25 µg/mL (≈ 141 µM)
- MIC (Proteus vulgaris; [3]): > 500 µg/mL
- MIC [1, 2]: 50 µg/mL (≈ 281 µM)
- MIC [1, 3]: > 500 µg/mL
- MIC (Pseudomonas aeruginosa; [2]): 25 µg/mL (≈ 141 µM)
- MIC (Pseudomonas aeruginosa; [3]): > 500 µg/mL
- MIC (Salmonella choleraesuis; [2]): 25 µg/mL (≈ 141 µM)
- MIC (Salmonella choleraesuis; [3]): > 500 µg/mL
- MIC (Staphylococcus aureus; [2]): 25 µg/mL (≈ 141 µM)
- MIC (Staphylococcus aureus; [3]): > 500 µg/mL
- MIC (Aspergillus niger; 72 h): < 10 µg/mL
- MIC (Candida albicans; 48 h): < 10 µg/mL
- MIC (Penicillium chrysogenum; 72 h): < 10 µg/mL
- MIC (Saccharomyces cerevisiae; 48 h): < 10 µg/mL
- MIC (Trichoderma viride; 72 h): < 10 µg/mL
- MIC (Aureobasidium pullulan; 72 h): < 10 µg/mL
- MIC (Fusarium oxysporum; 72 h): < 10 µg/mL

Compound: N#CSCSc1nsnc1Cl [Example 3, 4-chloro-3-thiomethylthiocyanato-1,2,5,-thiadiazole]
- MIC (Bacillus subtilis; Bs, pH 6.8, 30° C., 48 hours, read-out: Minimum Inhibitory Concentration (MIC)): < 10 µg/mL
- MIC (Bacillus subtilis; Bs, pH 8.2, 30° C., 48 hours, read-out: Minimum Inhibitory Concentration (MIC)): 25 µg/mL (≈ 112 µM)
- MIC (Enterobacter aerogenes; Ea, pH 6.8, 30° C., 48 hours, read-out: Minimum Inhibitory Concentration (MIC)): 25 µg/mL (≈ 112 µM)
- MIC (Enterobacter aerogenes; Ea, pH 8.2, 30° C., 48 hours, read-out: Minimum Inhibitory Concentration (MIC)): 100 µg/mL (≈ 447 µM)
- MIC (Escherichia coli; Ec, pH 6.8, 30° C., 48 hours, read-out: Minimum Inhibitory Concentration (MIC)): 25 µg/mL (≈ 112 µM)
- MIC (Escherichia coli; Ec, pH 8.2, 30° C., 48 hours, read-out: Minimum Inhibitory Concentration (MIC)): 50 µg/mL (≈ 223 µM)
- MIC (Klebsiella pneumonias; Kp, pH 6.8, 30° C., 48 hours, read-out: Minimum Inhibitory Concentration (MIC)): 25 µg/mL (≈ 112 µM)
- MIC (Klebsiella pneumonias; Kp, pH 8.2, 30° C., 48 hours, read-out: Minimum Inhibitory Concentration (MIC)): 50 µg/mL (≈ 223 µM)
- MIC (Proteus vulgaris; Pv, pH 6.8, 30° C., 48 hours, read-out: Minimum Inhibitory Concentration (MIC)): < 10 µg/mL
- MIC (Proteus vulgaris; Pv, pH 8.2, 30° C., 48 hours, read-out: Minimum Inhibitory Concentration (MIC)): 25 µg/mL (≈ 112 µM)
- MIC ([1]; PRD, pH 6.8, 30° C., 48 hours, read-out: Minimum Inhibitory Concentration (MIC)): < 10 µg/mL
- MIC ([1]; PRD, pH 8.2, 30° C., 48 hours, read-out: Minimum Inhibitory Concentration (MIC)): 25 µg/mL (≈ 112 µM)
- MIC (Pseudomonas aeruginosa; Pa, pH 6.8, 30° C., 48 hours, read-out: Minimum Inhibitory Concentration (MIC)): 25 µg/mL (≈ 112 µM)
- MIC (Pseudomonas aeruginosa; Pa, pH 8.2, 30° C., 48 hours, read-out: Minimum Inhibitory Concentration (MIC)): 100 µg/mL (≈ 447 µM)
- MIC (Salmonella choleraesuis; Sc, pH 6.8, 30° C., 48 hours, read-out: Minimum Inhibitory Concentration (MIC)): 25 µg/mL (≈ 112 µM)
- MIC (Salmonella choleraesuis; Sc, pH 8.2, 30° C., 48 hours, read-out: Minimum Inhibitory Concentration (MIC)): 50 µg/mL (≈ 223 µM)
- MIC (Staphylococcus aureus; Sa, pH 6.8, 30° C., 48 hours, read-out: Minimum Inhibitory Concentration (MIC)): 25 µg/mL (≈ 112 µM)
- MIC (Staphylococcus aureus; Sa, pH 8.2, 30° C., 48 hours, read-out: Minimum Inhibitory Concentration (MIC)): 50 µg/mL (≈ 223 µM)
- MIC (Aspergillus niger; An, malt yeast agar, 30° C., 72 hours for fungi): < 10 µg/mL
- MIC (Candida albicans; Ca, malt yeast agar, 30° C., 48 hours for yeast): < 10 µg/mL
- MIC (Penicillium chrysogenum; Pc, malt yeast agar, 30° C., 72 hours for fungi): < 10 µg/mL
- MIC (Saccharomyces cerevisiae; Sc, malt yeast agar, 30° C., 48 hours for yeast): < 10 µg/mL
- MIC (Trichoderma viride; Tv, malt yeast agar, 30° C., 72 hours for fungi): < 10 µg/mL
- MIC (Aureobasidium pullulan; Ap, malt yeast agar, 30° C., 72 hours for fungi): < 10 µg/mL
- MIC (Fusarium oxysporum; Fo, malt yeast agar, 30° C., 72 hours for fungi): < 10 µg/mL
